In ChEMBL document CHEMBL1149044, “Anthraquinones and a 10-Hydroxyanthrone from Phialophora alba” (1994):

Test system: Phellinus tremulae
Test: Antifungal activity against Phellinus tremulae at 1 mg/mL
Format: functional

COc1cc(C)cc2c1C(=O)c1c(O)cc(O)c(Cl)c1C2O (configuration not stated)
inhibition at 1000 µg/mL: 50%

COc1cc(C)cc2c1C(=O)c1c(O)cc(O)cc1C2=O [1-O-METHYLEMODIN]
inhibition at 1000 µg/mL: 50%
